# Measured values from patent US20070010527A1, “4-Anilino-3-quinolinecarbonitriles for the treatment of cancer” (priority 2005, published 2007).
# Columns and labels:
# [1] = target: CAMKII; assay: CAMKII kinase ELISA; type: biochemical
# Protocol: Assay Dilution Buffer (ADB): 20 mM MOPS, pH 7.2, 25 mM β-glycerol phosphate, 5 mM EGTA, 1 mM sodium orthovanadate, 1 mM dithiothreitol. 2. […] 3. […] 4. […] 5. […] 3. […] 4. […] 5. […] 6. […] 7.
# [2] = target: T1, PKA (Bos taurus, UniProt P00517); assay: PKA Scintiplate kinase assay; type: biochemical
# T1 construct: purchased Upstate 14-114
# From the text: PKA, PKC, S6 kinase, CAMKII and p38 kinase assays.
# [3] = system: HSB-2 T-cell leukemia cells; assay: Proliferation assay, MTS; type: cell-based; settings: HSB2, 96 h, day 4
# Protocol: (§1) For the experiments described in Table 3, 1000 cells were plated in each well of a 96 well cell culture dish on day 0 in the standard growth medium for that particular cell line. Compound was added on day 1. Relative cell number was determined on day 4.
# (§2) Some assays were monitored with the aid of the CellTiter 96 assay (Promega #G3580). With this assay, on day 4, detection reagent was added to the 96 well plate and absorbance at 490 nm was measured.
# [4] = system: Molt-4 T-cell leukemia cells; assay: Proliferation assay, MTS; type: cell-based; settings: Homo sapiens, MOLT-4, 96 h, day 4
# Protocol: as §1, §2
# [5] = system: A375 melanoma cells; assay: Proliferation assay, CellTiter-Glo; type: cell-based; settings: Homo sapiens, A-375, 96 h, Cell-glo, day 4
# Protocol: as §1
# (§3) The CellTiter-Glo luminescent cell viability assay (Promega #G7573) was used where cells were lysed with the CellTiter Glo reagent, agitated briefly and allowed to sit at room temperature for 30 minutes prior to analyzing on a Wallac plate reader equipped for luminescence readings.
# [6] = system: BxPC3 pancreatic tumor cells; assay: Proliferation assay, CellTiter-Glo; type: cell-based; settings: Homo sapiens, BXPC-3, 96 h, Cell-glo, day 4
# Protocol: as §1, §3
# [7] = system: Capan pancreatic tumor cells; assay: Proliferation assay, CellTiter-Glo; type: cell-based; settings: 96 h, Cell-glo, day 4
# Protocol: as §1, §3
# [8] = system: DU145 prostate tumor cells; assay: Proliferation assay, CellTiter-Glo; type: cell-based; settings: Homo sapiens, DU-145, 96 h, Cell-glo, day 4
# Protocol: as §1, §3
# [9] = system: HN5 head and neck tumor cells; assay: Proliferation assay, CellTiter-Glo; type: cell-based; settings: 96 h, Cell-glo, day 4
# Protocol: as §1, §3
# [10] = system: LnCap prostate tumor cells; assay: Proliferation assay, CellTiter-Glo; type: cell-based; settings: Homo sapiens, 96 h, Cell-glo, day 4
# Protocol: as §1, §3
# [11] = system: MiaPaca pancreatic tumor cells; assay: Proliferation assay, CellTiter-Glo; type: cell-based; settings: Homo sapiens, MIA PaCa-2, 96 h, Cell-glo, day 4
# Protocol: as §1, §3
# [12] = system: A375 melanoma cells; assay: Proliferation assay, SRB; type: cell-based; settings: Homo sapiens, A-375, 96 h, day 4
# Protocol: as §1
# (§4) The sulforhodamine B (SRB) assay was used for certain melanoma lines. In this assay, the serum concentration in the growth medium was 5% and culture medium volume was 0.2 ml. On day 4, 0.05 ml of 50% trichloroacetic acid was added to the medium and the plate was allowed to sit at room temperature for 1 hour. The medium was decanted and the plate was washed 3 times with water. The washed plates were dried, and then 0.08 ml of SRB reagent (SRB was obtained from Sigma; 0.4% SRB in 1% acetic acid) was added. After 10 minutes at room temperature, the plates were washed with 1% acetic acid until no free red color remained in solution. The bound SRB reagent was solubilized with 0.15 ml 10 mM Tris (no acid added). After agitating for 5 minutes on a shaker, the absorbance was read at 540 nm.
# [13] = system: HS-294-T melanoma cells; assay: Proliferation assay, SRB; type: cell-based; settings: Homo sapiens, 96 h, day 4
# Protocol: as §1, §4
# [14] = system: RPMI-7951 melanoma cells; assay: Proliferation assay, SRB; type: cell-based; settings: Homo sapiens, RPMI-7951, 96 h, day 4
# Protocol: as §1, §4
# [15] = system: A375 melanoma subcutaneous tumor xenografts; assay: A375 melanoma subcutaneous tumor xenograft in nude mice; type: in vivo; settings: 30 mg/kg bid ip 9 days, day 12
# Protocol: All animal studies were conducted under an approved Institutional Animal Care and Use Committee protocol. Tumor cells were suspended to 50 million cells/ml and 0.2 ml of the cell suspension was injected subcutaneously into a flank of 6-7 weeks old female nude mice (Charles River, Wilmington, Mass.). Mice with tumors larger than 200 mm^3 after one week were administered vehicle or compound by intraperitoneal injection at the indicated doses in 0.2 ml of vehicle containing 0.5% methylcellulose and 0.4% polysorbate 80 (Tween 80).
# [16] = system: HN5 head and neck tumor line; assay: Phosphorylation of downstream proteins in EGF-stimulated HN5 cells; type: cell-based; settings: serum-starved HN5 cells, compound 4 hours, then EGF 50 ng/ml ten minutes
# Protocol: FIG. 1. […] Serum-starved HN5 cells were treated with the compound for 4 hours, after which EGF was added to 50 ng/ml for ten minutes. Lysates were analyzed for Stat3 Y705, c-Cbl Y731 and Y774 and caveolin Y14 phosphorylation.
structure (smiles),measurement,setting,value
"COc1cc(Nc2c(C#N)cnc3cc(OCCCN4CCN(C)CC4)c(OC)cc23)c(Cl)cc1Cl [4-(2,4-dichloro-5-methoxy-phenylamino)-6-methoxy-7-[3-(4-methyl-piperazin-1-yl)-propoxy]-quinoline-3-carbonitrile]",IC50,[1],6250 nM
same,IC50,[2],5030 nM
same,IC50,[3],14 nM
same,IC50,[4],8200 nM
same,IC50,[5],1200 nM
same,IC50,[6],3900 nM
same,IC50,[7],5900 nM
same,IC50,[8],1600 nM
same,IC50,[9],300 nM
same,IC50,[10],3500 nM
same,IC50,[11],1300 nM
same,IC50,[12],900 nM
same,IC50,[13],600 nM
same,IC50,[14],1200 nM
same,T/C,[15],"39%, day 12"
same,phosphorylation of Y705 of Stat3,[16],reduced
same,phosphorylation of c-Cbl Y731,[16],reduced
same,phosphorylation of caveolin Y14,[16],reduced
